{"source": "patent US20120190615A1", "about": "“METHODS AND COMPOSITIONS FOR INDUCING WEIGHT LOSS” (Sanford-Burnham Medical Research Institute, priority 2011, published 2012)", "key": {"[1]": {"tested_on": "HIB1 cells", "experiment": "Differentiation of HIB1 brown preadipocytes (lipid accumulation, mitochondrial biogenesis)", "type": "cell-based", "settings": "24 hours, absence of standard induction cocktail", "description": "To further investigate the role of OX in BAT differentiation, the effect of OX on the preadipocyte cell line HIB1 was evaluated. […] Expression of genes functioning in lipid metabolism and mitochondrial biogenesis was elevated while the anti-adipogenic factors […], Pref1, and Wnt10 were expressed at very low levels (FIG. 16).\nHIB1 cells were stably transfected with lentivirus over-expressing orexin (Len-OX) and compared to vector controls in the absence or presence of exogenous OX (100 nM), Cells were cultured for 7 days in the absence of differentiation medium and stained with Oil Red O. By day 6 of adipogenic differentiation, orexin-expressing cells had undergone normal BAT differentiation as scored by lipid accumulation.\nBrown fat morphological defects seen in both adult and newborn OXR1 KO mice were similar to those observed in OX KO mice. […] To examine the cellular and molecular consequences of OXR1 depletion, lentiviral vectors were used to express a short hairpin (sh) shRNA targeting OXR1 (shOXR1; Open Biosystems, Inc., catalog no. RMM4431-98766481) or a scrambled shRNA control (Open Biosystems, Inc., catalog no. RHS4346) in HIB1 mesenchymal cells. […] After 5 days of differentiation, cultures expressing the scrambled shRNA control had undergone brown fat differentiation as scored by Oil Red O staining and shown in FIG. 18. […]"}, "[2]": {"tested_on": "Mouse embryonic fibroblasts (MEFs)", "experiment": "Differentiation of mouse embryonic fibroblasts to a BAT lineage", "type": "cell-based", "settings": "3-day treatment, 7-10 days without induction cocktail, Oil Red O", "source_text": "Mouse embryonic fibroblasts (MEFs) resemble mesenchymal cells in their ability to differentiate into various mesenchymal lineages. To determine whether OX triggers commitment of embryonic fibroblasts to a BAT lineage, MEFs isolated at […] were exposed to a differentiation protocol involving a 3-day treatment with Orexin A and BMP-7, and differentiation in the absence of the standard induction cocktail of IBMX, thiazolidone, and indomethacin for a further 7-10 days."}, "[3]": {"tested_on": "wild-type C57BL6 mice fed a high fat diet", "experiment": "High fat diet six weeks with OX once per day, body weight and NMR body composition (Example 11)", "type": "in vivo", "settings": "HFD six weeks", "description": "To confirm these findings and investigate the role for OX in energy metabolism and to prevent obesity, wild-type C57BL6 mice were fed a high fat diet (HFD) for six weeks. During this period, half of the mice received OX intraperitoneally once per day, while the other half was injected with saline. Food intake and body weight of both groups were monitored weekly. OX-treated mice ate more, resisted weight gain, were visibly lean, and accumulated less fat. […] Fat and lean mass were determined by subjecting mice to nuclear magnetic resonance (NMR) (Bruker, The Woodlands, Tex., United States) following a four-hour fast. OX therapy had no impact on either the lean mass or total fluid content. FIG. 27 illustrates these findings. Weekly energy intake, cumulative energy consumed, body weight gain over six weeks, and differences in body size between the two groups of mice are depicted."}}, "data": [{"substance": "orexin-A (EPLPDCCRQKTCSCRLYELLHGAGNHAAGILTL) [OX, human orexin A, cat; No. 24470, Anaspec]", "values": [{"measurement": "lipid accumulation and mitochondrial biogenesis", "setting": "[1]", "result": "induced extensive lipid accumulation and mitochondrial biogenesis"}, {"measurement": "phenotype of treated MEFs", "setting": "[2]", "result": "adopted a BAT phenotype"}, {"measurement": "abdominal obesity of control mice relative to OX-treated mice", "setting": "[3]; OX i.p. once per day", "result": 3.5, "unit": "times"}, {"measurement": "body fat accumulated by control mice relative to OX-treated mice", "setting": "[3]; OX i.p. once per day", "result": "twice as much body fat"}, {"measurement": "control mice heavier than OX-treated mice", "setting": "[3]; OX i.p. once per day", "result": "approximately 35%"}, {"measurement": "impact on lean mass or total fluid content", "setting": "[3]; OX i.p. once per day", "result": "no impact"}, {"measurement": "% body fat", "setting": "[3]; NMR, n=4", "result": "15 ± 1.1", "unit": "%"}, {"measurement": "Fat mass", "setting": "[3]; NMR, n=4", "result": "3.4 ± 0.4"}, {"measurement": "Fluid content", "setting": "[3]; NMR, n=4", "result": "7.7 ± 1.5"}, {"measurement": "Lean mass", "setting": "[3]; NMR, n=4", "result": "18.7 ± 1.1"}, {"measurement": "Lean mass-fat mass ratio", "setting": "[3]; NMR, n=4", "result": "5.5 ± 0.3"}]}]}
